Earlier results, collected in US10179172B2, “Liquid pharmaceutical formulations for injection comprising yellow 5 or orange G and uses thereof” (EAGLE BIOLOGICS, INC., priority 2013, dated 2019).
Values joined by “and” are separate entries in the source; they are usually repeats but may differ in a detail not shown here. Equal entries are not always repeated.

Legend:
[1] = system: respiratory syncytial virus; conditions: two Phase III clinical trials, pediatric population
[2] = long-term clinical outcomes

Row | Substance | Reduction of the risk of hospitalization due to respiratory syncytial virus infection [1] | Patients achieving clinical remission [2] [%]
1 | palivizumab: humanized mAb directed against an epitope in the A antigenic site of the F protein of respiratory syncytial virus | 55% and 45% | –
2 | vedolizumab: mAb being developed by Millennium Pharmaceuticals for ulcerative colitis and Crohn's disease | – | ~60
